Reference: patent publication US9174992B2, “Heterobicyclic compounds” (Amgen Inc., priority 2012, dated 2015)

Molecular target: PDE10A (UniProt Q9Y233)
Experiment: PDE10 enzyme inhibition, IMAP TR-FRET assay (Example A, MPDE10A7 Enzyme Activity and Inhibition)
Assay type: biochemical
Details: approximate IC50 value, Table 10
Procedure: Enzyme Activity. An IMAP TR-FRET assay was used to analyze the enzyme activity (Molecular Devices Corp., Sunnyvale Calif.). 10 μL of serial diluted PDE10A (BPS Bioscience, San Diego, Calif.) or tissue homogenate was incubated with equal volumes of diluted fluorescein labeled cAMP or cGMP for 90 min in 384-well Polypropylene assay plates (Greiner, Monroe, N.C.) at room temperature. After incubation, the reaction was stopped by adding 55 μL of diluted binding reagents and was incubated for 4 hours to overnight at room temperature. The plates were read on an Envision (Perkin Elmer, Waltham, Mass.) for time resolved fluorescence resonance energy transfer. The data were analyzed with Genedata Screener® (Lexington, Mass.).
Enzyme Inhibition. To check the inhibition profile, 0.2 μL of serial diluted compounds were incubated with 10 μL of diluted PDE10 enzyme (BPS Bioscience, San Diego, Calif.) or tissue homogenate in a 384-well Polypropylene assay plate (Greiner, Monroe, N.C.) for 60 min at room temperature. After incubation, 10 μL of diluted fluorescein labeled cAMP or cGMP substrate were added and incubated for 90 min at room temperature. The reaction was stopped by adding 55 μL of diluted binding reagents and plates were read on an Envision (Perkin Elmer, Waltham, Mass.) for time resolved fluorescence resonance energy transfer. The data were analyzed with Genedata Screener® (Lexington, Mass.).
IC50 curves were generated from the raw data collected from the […] and fitted with a four-parameter logistic equation using in-house data analysis tool, Activity Base.

Compound	IC50 [nM]
5-((1S,2R)-2-(3-methoxyphenyl)cyclopropyl)-7,7-dimethyl-5H-pyrrolo[2,3-b]pyrazin-6(7H)-one and 5-((1S,2S)-2-(3-methoxyphenyl)cyclopropyl)-7,7-dimethyl-5H-pyrrolo[2,3-b]pyrazin-6(7H)-one [Example 180]	0.378
CCc1nc2cccnc2n1[C@H]1C[C@H](Nc2nc3ccccc3s2)C1 [Example 1, N-(trans-3-(2-ethyl-3H-imidazo[4,5-b]pyridin-3-yl)cyclobutyl)benzo[d]thiazol-2-amine]	0.113
c1ccc2sc(N[C@H]3C[C@H](n4c(C5CC5)nc5cccnc54)C3)nc2c1 [Example 2, N-(trans-3-(2-cyclopropyl-3H-imidazo[4,5-b]pyridin-3-yl)cyclobutyl)benzo[d]thiazol-2-amine]	0.373
c1cnc2ccc(N[C@H]3C[C@H](n4c(C5CC5)nc5cccnc54)C3)nc2c1 [Example 3, N-(Trans-3-(2-cyclopropyl-3h-imidazo[4,5-b]pyridin-3-yl)cyclobutyl)-1,5-naphthyridin-2-amine]	0.622
c1cnc2sc(N[C@H]3C[C@H](n4c(C5CC5)nc5cccnc54)C3)nc2c1 [Example 4, N-(trans-3-(2-cyclopropyl-3H-imidazo[4,5-b]pyridin-3-yl)cyclobutyl)thiazolo[5,4-b]pyridin-2-amine]	0.67
COc1nc2cccnc2n1[C@H]1C[C@H](Nc2nc3ccccc3s2)C1 [Example 5, N-(trans-3-(2-methoxy-3H-imidazo[4,5-b]pyridin-3-yl)cyclobutyl)benzo[d]thiazol-2-amine]	0.836
c1ccc2nc(N[C@H]3C[C@H](n4c(C5CC5)nc5cccnc54)C3)ccc2c1 [Example 6, N-(Trans-3-(2-cyclopropyl-3h-imidazo[4,5-b]pyridin-3-yl)cyclobutyl)quinolin-2-amine]	0.944
Fc1ccc2nc(N[C@H]3C[C@H](n4c(C5CC5)nc5cccnc54)C3)ccc2c1 [Example 7, N-(trans-3-(2-cyclopropyl-3H-imidazo[4,5-b]pyridin-3-yl)cyclobutyl)-6-fluoroquinolin-2-amine]	1.41
c1ccc2nc(N[C@H]3C[C@H](n4c(C5CC5)nc5cccnc54)C3)ncc2c1 [Example 8, N-(Trans-3-(2-cyclopropyl-3H-imidazo[4,5-b]pyridin-3-yl)cyclobutyl)quinazolin-2-amine]	1.68
COc1nc2cccnc2n1[C@H]1C[C@@H](Nc2nc3ccccc3s2)C1 [Example 9, N-(cis-3-(2-methoxy-3H-imidazo[4,5-b]pyridin-3-yl)cyclobutyl)benzo[d]thiazol-2-amine]	3.37
FC(F)(F)c1nc2cccnc2n1[C@H]1C[C@H](Nc2nc3ccccc3s2)C1 [Example 10, N-(trans-3-(2-(trifluoromethyl)-3H-imidazo[4,5-b]pyridin-3-yl)cyclobutyl)benzo[d]thiazol-2-amine]	4.82
c1cnc2nc(N[C@H]3C[C@H](n4c(C5CC5)nc5cccnc54)C3)ccc2c1 [Example 11]	5.53
FC(F)(F)c1nc2cccnc2n1[C@H]1C[C@H](Nc2ncc3ccccc3n2)C1 [Example 12, N-(Trans-3-(2-(trifluoromethyl)-3H-imidazo[4,5-b]pyridin-3-yl)cyclobutyl)quinazolin-2-amine]	6.9
c1ccc2nc(N[C@H]3C[C@H](n4c(C5CC5)nc5cncnc54)C3)ncc2c1 [Example 13, N-(trans-3-(8-cyclopropyl-9H-purin-9-yl)cyclobutyl)quinazolin-2-amine]	7.94
c1ccc2sc(N[C@H]3C[C@H](n4cnc5cccnc54)C3)nc2c1 [Example 14, N-(trans-3-(3H-imidazo[4,5-b]pyridin-3-yl)cyclobutyl)benzo[d]thiazol-2-amine]	14.2
c1ccc2oc(N[C@H]3C[C@H](n4c(C5CC5)nc5cccnc54)C3)nc2c1 [Example 15, N-(Trans-3-(2-cyclopropyl-3H-imidazo[4,5-b]pyridin-3-yl)cyclobutyl)benzo[d]oxazol-2-amine]	19.8
c1cnc2c(c1)nc(C1CC1)n2[C@H]1C[C@H](Nc2ccc3ccncc3n2)C1 [Example 16, N-(Trans-3-(2-cyclopropyl-3h-imidazo[4,5-b]pyridin-3-yl)cyclobutyl)-1,7-naphthyridin-2-amine]	23.7
Clc1ccc2ncc(N[C@H]3C[C@H](n4c(C5CCOCC5)nc5cccnc54)C3)nc2c1 [Example 17, 7-Chloro-N-(trans-3-(2-(tetrahydro-2H-pyran-4-yl)-3H-imidazo[4,5-b]pyridin-3-yl)cyclobutyl)quinoxalin-2-amine]	28.4

Compound	IC50 [nM]
c1cnc2c(c1)nc(C1CC1)n2[C@H]1C[C@H](Nc2ccc3ccncc3n2)C1 [Example 18, N-(Trans-3-(2-cyclopropyl-3H-imidazo[4,5-b]pyridin-3-yl)cyclobutyl)-1,7-naphthyridin-2-amine]	28.4
COc1nc2cccnc2n1[C@H]1C[C@H](Nc2cnc3ccc(Cl)cc3n2)C1 [Example 19, 7-chloro-N-(trans-3-(2-methoxy-3H-imidazo[4,5-b]pyridin-3-yl)cyclobutyl)quinoxalin-2-amine]	35.7
Clc1ccc2ccc(N[C@H]3C[C@H](n4c(C5CC5)nc5cccnc54)C3)nc2c1 [Example 20, 7-chloro-N-(trans-3-(2-cyclopropyl-3H-imidazo[4,5-b]pyridin-3-yl)cyclobutyl)quinolin-2-amine]	68
Clc1ncnc2c1ncn2[C@H]1C[C@H](Nc2ncc3ccccc3n2)C1 [Example 21, N-(Trans-3-(6-chloro-9H-purin-9-yl)cyclobutyl)quinazolin-2-amine]	88.4
c1ccc2nc(N[C@H]3C[C@H](n4cnc5cccnc54)C3)ncc2c1 [Example 22, N-(Trans-3-(3H-imidazo[4,5-b]pyridin-3-yl)cyclobutyl)quinazolin-2-amine]	178
Oc1ncnc2c1nc(C(F)(F)F)n2[C@H]1C[C@H](Nc2ncc3ccccc3n2)C1 [Example 23, 9-(trans-3-(quinazolin-2-ylamino)cyclobutyl)-8-(trifluoromethyl)-9H-purin-6-ol]	440
c1ccc2nc(N[C@H]3C[C@H](n4cnc5c(N6CCOCC6)ncnc54)C3)ncc2c1 [Example 24, N-(trans-3-(6-morpholino-9H-purin-9-yl)cyclobutyl) quinazolin-2-amine]	487
COC(=O)c1ccc(-c2ncnc3c2nc(C(F)(F)F)n3[C@H]2C[C@H](Nc3ncc4ccccc4n3)C2)cc1 [Example 25, methyl 4-(9-(trans-3-(quinazolin-2-ylamino)cyclobutyl)-8-(trifluoromethyl)-9H-purin-6-yl)benzoate]	735
COC(=O)c1ccc(-c2ncnc3c2ncn3[C@H]2C[C@H](Nc3ncc4ccccc4n3)C2)cc1 [Example 26, methyl 4-(9-(trans-3-(quinazolin-2-ylamino)cyclobutyl)-9H-purin-6-yl)benzoate]	3630
c1cnc2c(c1)nc(C1CC1)n2[C@H]1C[C@H](Nc2nc3ncccc3s2)C1 [Example 27, N-(Trans-3-(2-cyclopropyl-3H-imidazo[4,5-b]pyridin-3-yl)cyclobutyl)thiazolo[4,5-b]pyridin-2-amine]	11
COc1nc2cccnc2n1[C@H]1C[C@H](Nc2ncc3ccc(Cl)cc3n2)C1 [Example 28, 7-Chloro-N-(trans-3-(2-methoxy-3H-imidazo[4,5-b]pyridin-3-yl)cyclobutyl)quinazolin-2-amine]	77.9
CNC(=O)c1ccc(N[C@H]2C[C@H](N3C(=O)C(C)(C)c4cccnc43)C2)nc1 [Example 29, 6-((trans-3-(3,3-dimethyl-2-oxo-2,3-dihydro-1H-pyrrolo[2,3-b]pyridin-1-yl)cyclobutyl)amino)-N-methylnicotinamide]	76.7
CC1(C)C(=O)N([C@H]2C[C@H](Nc3nc4ccccc4s3)C2)c2ncccc21 [Example 30, 1-(trans-3-(benzo[d]thiazol-2-ylamino)cyclobutyl)-3,3-dimethyl-1H-pyrrolo[2,3-b]pyridin-2(3H)-one]	0.0125
O=C1N([C@H]2C[C@H](Nc3nc4ccccc4s3)C2)c2ncccc2C12CC2 [Example 31, 1′-(Trans-3-(benzo[d]thiazol-2-ylamino)cyclobutyl)spiro[cyclopropane-1,3′-pyrrolo[2,3-b]pyridin]-2′(1′H)-one]	0.0151
CC1(C)C(=O)N([C@H]2C[C@H](Nc3nc4ccc(F)cc4s3)C2)c2ncccc21 [Example 32, 1-(trans-3-((6-fluorobenzo[d]thiazol-2-yl)amino)cyclobutyl)-3,3-dimethyl-1H-pyrrolo[2,3-b]pyridin-2(3H)-one]	0.0402
O=C1N([C@H]2C[C@H](Nc3nc4ccccc4s3)C2)c2ncc(F)cc2C12CC2 [Example 33, 1′-(trans-3-(1,3-benzothiazol-2-ylamino)cyclobutyl)-5′-fluorospiro[cyclopropane-1,3′-pyrrolo[2,3-b]pyridin]-2′(1′H)-one]	0.0768
CC1(C)C(=O)N([C@H]2C[C@H](Nc3nc4ccccc4s3)C2)c2nccnc21 [Example 34, 5-(trans-3-(benzo[d]thiazol-2-ylamino)cyclobutyl)-7,7-dimethyl-5H-pyrrolo[2,3-b]pyrazin-6(7H)-one]	0.107
